The source of these data is patent US10344060B2 (priority 2013, dated 2019).

One may read the IC50 as the concentration at which inhibition is half-maximal.

Molecules are shown by their SMILES. Read-outs that look alike come from different tables or passages of the source.

Holding throughout (assay): cell-based
Test [1] has as its target hNav1.7 (Homo sapiens, UniProt Q15858). Particulars: read-out: IC50 (μM) Nav1.7.
Test [2] concerns the target hNav1.5 (Homo sapiens, UniProt Q14524). The settings on record: IonWorks Quattro, read-out: IC50 (μM) Nav1.5. For orientation: Patch clamp records ionic current or voltage across a cell membrane.
Test [3] addresses hNav1.4 (Homo sapiens, UniProt P35499). The class given is cell-based. The settings on record: for IC50: IonWorks Quattro, read-out: IC50 (μM) Nav1.4; for Nav1.4/Nav1.7: ratio of IonWorks Quattro IC50 values.
Test [4] concerns the target hNav1.3 (Homo sapiens, UniProt Q9NY46). Particulars: IonWorks Quattro, read-out: IC50 (μM) Nav1.3.

hNav1.4, sequence (P35499 whole entry): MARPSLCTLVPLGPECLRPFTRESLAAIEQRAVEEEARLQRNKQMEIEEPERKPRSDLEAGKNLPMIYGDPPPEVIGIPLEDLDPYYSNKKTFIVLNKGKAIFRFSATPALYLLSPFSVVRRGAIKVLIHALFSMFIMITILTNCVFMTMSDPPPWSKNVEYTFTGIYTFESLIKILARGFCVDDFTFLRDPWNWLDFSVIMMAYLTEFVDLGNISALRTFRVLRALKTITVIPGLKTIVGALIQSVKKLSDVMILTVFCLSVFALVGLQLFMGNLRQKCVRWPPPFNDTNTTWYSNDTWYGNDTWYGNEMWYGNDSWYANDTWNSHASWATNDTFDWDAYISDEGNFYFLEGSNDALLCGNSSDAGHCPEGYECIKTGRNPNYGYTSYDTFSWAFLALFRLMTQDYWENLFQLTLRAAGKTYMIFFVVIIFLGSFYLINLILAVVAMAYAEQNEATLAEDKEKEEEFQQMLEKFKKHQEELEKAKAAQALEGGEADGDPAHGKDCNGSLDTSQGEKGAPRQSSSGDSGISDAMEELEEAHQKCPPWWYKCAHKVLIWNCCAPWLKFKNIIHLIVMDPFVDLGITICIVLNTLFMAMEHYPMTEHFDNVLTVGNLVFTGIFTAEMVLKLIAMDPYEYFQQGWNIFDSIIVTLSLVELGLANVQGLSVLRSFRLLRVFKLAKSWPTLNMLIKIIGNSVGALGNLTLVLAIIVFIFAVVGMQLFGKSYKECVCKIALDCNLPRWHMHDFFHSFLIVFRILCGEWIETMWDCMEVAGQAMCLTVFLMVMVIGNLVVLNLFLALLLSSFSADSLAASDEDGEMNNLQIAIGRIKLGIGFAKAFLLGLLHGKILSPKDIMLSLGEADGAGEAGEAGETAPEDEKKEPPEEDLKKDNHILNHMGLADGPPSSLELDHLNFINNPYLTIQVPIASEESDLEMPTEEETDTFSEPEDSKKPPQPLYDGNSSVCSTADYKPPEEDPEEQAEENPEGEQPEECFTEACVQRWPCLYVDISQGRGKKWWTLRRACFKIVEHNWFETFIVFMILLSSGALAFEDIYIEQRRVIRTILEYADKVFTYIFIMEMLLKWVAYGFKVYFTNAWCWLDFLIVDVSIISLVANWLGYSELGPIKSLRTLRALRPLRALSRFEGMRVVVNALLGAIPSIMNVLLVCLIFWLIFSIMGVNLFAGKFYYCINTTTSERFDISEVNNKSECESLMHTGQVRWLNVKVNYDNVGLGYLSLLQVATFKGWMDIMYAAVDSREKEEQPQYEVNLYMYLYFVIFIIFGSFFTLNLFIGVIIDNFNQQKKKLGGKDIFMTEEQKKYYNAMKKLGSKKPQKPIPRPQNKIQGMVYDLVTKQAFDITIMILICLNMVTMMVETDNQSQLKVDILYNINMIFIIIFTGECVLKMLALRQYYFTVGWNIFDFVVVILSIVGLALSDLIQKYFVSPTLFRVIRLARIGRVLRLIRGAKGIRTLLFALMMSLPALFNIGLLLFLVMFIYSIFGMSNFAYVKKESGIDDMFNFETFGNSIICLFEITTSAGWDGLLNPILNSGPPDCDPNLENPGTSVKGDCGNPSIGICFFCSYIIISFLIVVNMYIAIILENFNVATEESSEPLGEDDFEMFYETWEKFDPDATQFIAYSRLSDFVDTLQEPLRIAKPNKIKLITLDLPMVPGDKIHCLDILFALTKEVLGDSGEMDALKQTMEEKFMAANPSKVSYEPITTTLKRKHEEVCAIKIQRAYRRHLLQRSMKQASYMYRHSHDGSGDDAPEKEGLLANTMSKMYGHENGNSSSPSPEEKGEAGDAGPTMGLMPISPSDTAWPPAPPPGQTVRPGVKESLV
hNav1.3, sequence (Q9NY46 whole entry): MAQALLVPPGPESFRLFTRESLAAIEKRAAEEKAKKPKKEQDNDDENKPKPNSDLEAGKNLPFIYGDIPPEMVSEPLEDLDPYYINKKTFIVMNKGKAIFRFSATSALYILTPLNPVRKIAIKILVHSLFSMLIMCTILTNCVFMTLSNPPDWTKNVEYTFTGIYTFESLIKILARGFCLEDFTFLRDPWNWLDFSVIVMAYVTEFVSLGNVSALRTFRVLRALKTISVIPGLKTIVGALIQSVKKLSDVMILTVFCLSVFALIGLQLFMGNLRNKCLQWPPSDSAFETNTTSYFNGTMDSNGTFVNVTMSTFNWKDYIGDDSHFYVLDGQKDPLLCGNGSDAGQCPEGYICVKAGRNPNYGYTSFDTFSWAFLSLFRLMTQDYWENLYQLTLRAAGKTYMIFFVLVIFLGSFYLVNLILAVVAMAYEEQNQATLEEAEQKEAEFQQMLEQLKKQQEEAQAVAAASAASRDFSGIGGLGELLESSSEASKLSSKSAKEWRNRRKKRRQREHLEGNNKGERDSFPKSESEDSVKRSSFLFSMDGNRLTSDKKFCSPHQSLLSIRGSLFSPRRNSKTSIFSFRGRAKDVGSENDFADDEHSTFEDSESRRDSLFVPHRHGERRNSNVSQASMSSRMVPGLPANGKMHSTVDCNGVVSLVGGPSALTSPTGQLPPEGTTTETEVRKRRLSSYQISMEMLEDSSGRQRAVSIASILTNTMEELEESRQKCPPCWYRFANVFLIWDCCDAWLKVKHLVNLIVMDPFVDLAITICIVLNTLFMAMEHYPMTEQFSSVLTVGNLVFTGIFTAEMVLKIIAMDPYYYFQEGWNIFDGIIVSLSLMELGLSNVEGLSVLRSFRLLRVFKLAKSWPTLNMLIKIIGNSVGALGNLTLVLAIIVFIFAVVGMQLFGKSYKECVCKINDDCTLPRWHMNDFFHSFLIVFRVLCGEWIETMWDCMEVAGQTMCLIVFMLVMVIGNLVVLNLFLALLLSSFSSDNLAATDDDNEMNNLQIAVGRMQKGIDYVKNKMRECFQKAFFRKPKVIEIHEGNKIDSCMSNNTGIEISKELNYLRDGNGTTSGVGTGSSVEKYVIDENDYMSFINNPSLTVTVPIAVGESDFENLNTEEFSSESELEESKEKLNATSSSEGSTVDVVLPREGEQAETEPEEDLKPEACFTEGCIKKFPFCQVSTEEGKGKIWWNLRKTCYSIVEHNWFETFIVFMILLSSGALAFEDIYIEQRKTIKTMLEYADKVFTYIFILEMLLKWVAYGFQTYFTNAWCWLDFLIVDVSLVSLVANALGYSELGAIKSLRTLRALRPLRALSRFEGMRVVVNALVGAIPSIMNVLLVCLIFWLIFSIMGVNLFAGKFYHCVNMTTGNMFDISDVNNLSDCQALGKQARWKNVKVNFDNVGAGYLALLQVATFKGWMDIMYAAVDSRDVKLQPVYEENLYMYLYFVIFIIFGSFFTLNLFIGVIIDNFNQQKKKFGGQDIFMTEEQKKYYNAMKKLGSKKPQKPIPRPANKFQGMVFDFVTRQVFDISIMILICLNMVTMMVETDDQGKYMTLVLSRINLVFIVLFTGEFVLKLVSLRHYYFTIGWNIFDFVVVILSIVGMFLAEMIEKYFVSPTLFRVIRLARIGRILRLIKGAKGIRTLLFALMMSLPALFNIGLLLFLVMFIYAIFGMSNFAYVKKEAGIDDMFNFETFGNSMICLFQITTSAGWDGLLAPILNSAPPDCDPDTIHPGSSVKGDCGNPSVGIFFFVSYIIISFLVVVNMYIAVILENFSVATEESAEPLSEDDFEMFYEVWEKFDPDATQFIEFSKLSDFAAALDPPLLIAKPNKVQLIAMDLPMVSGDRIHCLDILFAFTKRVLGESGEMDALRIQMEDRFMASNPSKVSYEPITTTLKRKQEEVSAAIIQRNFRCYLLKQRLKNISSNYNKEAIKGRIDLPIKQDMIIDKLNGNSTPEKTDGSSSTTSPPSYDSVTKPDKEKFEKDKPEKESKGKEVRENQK

Regarding `CC[C@H](C)[C@H](NC(=O)[C@@H](NC(=O)[C@H](CCCCN)NC(=O)[C@H](CCCNC(=N)N)NC(=O)[C@@H]1CSSC[C@@H]2NC(=O)[C@H](C)NC(=O)[C@H](CCCNC(=N)N)NC(=O)[C@H](CCCCN)NC(=O)[C@H](CO)NC(=O)[C@H](CC(=O)O)NC(=O)[C@@H]3CSSC[C@H](NC(=O)[C@H](CCCNC(=N)N)NC(=O)[C@H](CC(C)C)NC(=O)CNC(=O)[C@H](CCC(=O)O)NC(=O)[C@H](CSSC[C@H](NC(=O)[C@H](C)N)C(=O)N[C@@H](CCC(N)=O)C(=O)N[C@@H](CCCCN)C(=O)N[C@@H](Cc4c[nH]c5ccccc45)C(=O)N[C@@H](CCSC)C(=O)N[C@@H](Cc4c[nH]c5ccccc45)C(=O)N[C@@H]([C@@H](C)O)C(=O)N3)NC2=O)C(=O)N[C@@H](CCCCN)C(=O)N[C@@H](CC(C)C)C(=O)N[C@@H](Cc2c[nH]c3ccccc23)C(=O)N1)[C@@H](C)CC)C(N)=O` [compound 3], the 50% inhibitory concentration (IC50) in test [1] is 0.004 µM; in test [2] (Table 6), 3.1 µM; in test [3] (Table 6), 0.07 µM; in test [4] (Table 6), 0.04 µM. Also, in test [3] (Table 6), the Nav1.4/Nav1.7 was determined as 18.
The like results for `CC[C@H](C)[C@H](NC(=O)[C@@H](NC(=O)[C@H](CCCCN)NC(=O)[C@H](CCCNC(=N)N)NC(=O)[C@@H]1CSSC[C@@H]2NC(=O)[C@H](C)NC(=O)[C@H](CCCNC(=N)N)NC(=O)[C@H](CCCCN)NC(=O)[C@H](CO)NC(=O)[C@H](CC(=O)O)NC(=O)[C@@H]3CSSC[C@H](NC(=O)[C@H](CCCNC(=N)N)NC(=O)[C@H](CC(C)C)NC(=O)CNC(=O)[C@H](CCC(=O)O)NC(=O)[C@H](CSSC[C@H](NC(=O)[C@@H](N)Cc4ccc(O)cc4)C(=O)N[C@@H](CCC(N)=O)C(=O)N[C@@H](CCCCN)C(=O)N[C@@H](Cc4c[nH]c5ccccc45)C(=O)N[C@@H](C)C(=O)N[C@@H](Cc4c[nH]c5ccccc45)C(=O)N[C@@H]([C@@H](C)O)C(=O)N3)NC2=O)C(=O)N[C@@H](CCCCN)C(=O)N[C@@H](CC(C)C)C(=O)N[C@@H](Cc2c[nH]c3ccccc23)C(=O)N1)[C@@H](C)CC)C(N)=O` [compound 7] were, in that order, 0.094 µM, greater than 5 µM, 0.28 µM, 0.16 µM and 3.
The like results for `CC[C@H](C)[C@H](NC(=O)[C@@H](NC(=O)[C@H](CCCCN)NC(=O)[C@H](CCCNC(=N)N)NC(=O)[C@@H]1CSSC[C@@H]2NC(=O)[C@H](C)NC(=O)[C@H](CCCNC(=N)N)NC(=O)[C@H](CCCCN)NC(=O)[C@H](CO)NC(=O)[C@H](CC(=O)O)NC(=O)[C@@H]3CSSC[C@H](NC(=O)[C@H](CCCNC(=N)N)NC(=O)[C@H](CC(C)C)NC(=O)CNC(=O)[C@H](CCC(=O)O)NC(=O)[C@H](CSSC[C@H](NC(=O)[C@@H](N)Cc4ccc(O)cc4)C(=O)N[C@@H](CCC(N)=O)C(=O)N[C@@H](CCCCN)C(=O)N[C@@H](Cc4c[nH]c5ccccc45)C(=O)N[C@@H](CCSC)C(=O)N[C@@H](C)C(=O)N[C@@H]([C@@H](C)O)C(=O)N3)NC2=O)C(=O)N[C@@H](CCCCN)C(=O)N[C@@H](CC(C)C)C(=O)N[C@@H](Cc2c[nH]c3ccccc23)C(=O)N1)[C@@H](C)CC)C(N)=O` [compound 8] were, in that order, 0.15 µM, greater than 5 µM, 0.69 µM, 0.94 µM and 5.
For `CC[C@H](C)[C@H](NC(=O)[C@@H](NC(=O)[C@H](CCCCN)NC(=O)[C@H](CCCNC(=N)N)NC(=O)[C@@H]1CSSC[C@@H]2NC(=O)[C@H](C)NC(=O)[C@H](CCCNC(=N)N)NC(=O)[C@H](CCCCN)NC(=O)[C@H](CO)NC(=O)[C@H](CC(=O)O)NC(=O)[C@@H]3CSSC[C@H](NC(=O)[C@H](CCCNC(=N)N)NC(=O)[C@H](CC(C)C)NC(=O)CNC(=O)[C@H](CCC(=O)O)NC(=O)[C@H](CSSC[C@H](NC(=O)[C@@H](N)Cc4ccc(O)cc4)C(=O)N[C@@H](CCC(N)=O)C(=O)N[C@@H](CCCCN)C(=O)N[C@@H](Cc4c[nH]c5ccccc45)C(=O)N[C@@H](CCSC)C(=O)N[C@@H](Cc4c[nH]c5ccccc45)C(=O)N[C@@H](C)C(=O)N3)NC2=O)C(=O)N[C@@H](CCCCN)C(=O)N[C@@H](CC(C)C)C(=O)N[C@@H](Cc2c[nH]c3ccccc23)C(=O)N1)[C@@H](C)CC)C(N)=O` [compound 9], in that order: 0.025 µM, greater than 5 µM, 0.25 µM, 0.21 µM and 10.
As to `CC[C@H](C)[C@H](NC(=O)[C@@H](NC(=O)[C@H](CCCCN)NC(=O)[C@H](CCCNC(=N)N)NC(=O)[C@@H]1CSSC[C@@H]2NC(=O)[C@H](C)NC(=O)[C@H](CCCNC(=N)N)NC(=O)[C@H](CCCCN)NC(=O)[C@H](C)NC(=O)[C@H](CC(=O)O)NC(=O)[C@@H]3CSSC[C@H](NC(=O)[C@H](CCCNC(=N)N)NC(=O)[C@H](CC(C)C)NC(=O)CNC(=O)[C@H](CCC(=O)O)NC(=O)[C@H](CSSC[C@H](NC(=O)[C@@H](N)Cc4ccc(O)cc4)C(=O)N[C@@H](CCC(N)=O)C(=O)N[C@@H](CCCCN)C(=O)N[C@@H](Cc4c[nH]c5ccccc45)C(=O)N[C@@H](CCSC)C(=O)N[C@@H](Cc4c[nH]c5ccccc45)C(=O)N[C@@H]([C@@H](C)O)C(=O)N3)NC2=O)C(=O)N[C@@H](CCCCN)C(=O)N[C@@H](CC(C)C)C(=O)N[C@@H](Cc2c[nH]c3ccccc23)C(=O)N1)[C@@H](C)CC)C(N)=O` [compound 11], the IC50 in test [1] worked out at 0.012 µM; in test [2] (Table 6), 3.6 µM; in test [3] (Table 6), 0.16 µM; in test [4] (Table 6), 0.14 µM. Besides, the Nav1.4/Nav1.7 in test [3] (Table 6) was determined as 13.
For `CC[C@H](C)[C@H](NC(=O)[C@H](CCCNC(=N)N)NC(=O)[C@H](CCCCN)NC(=O)[C@H](CCCNC(=N)N)NC(=O)[C@@H]1CSSC[C@@H]2NC(=O)[C@H](C)NC(=O)[C@H](CCCNC(=N)N)NC(=O)[C@H](CCCCN)NC(=O)[C@H](CO)NC(=O)[C@H](CC(=O)O)NC(=O)[C@@H]3CSSC[C@H](NC(=O)[C@H](CCCNC(=N)N)NC(=O)[C@H](CC(C)C)NC(=O)CNC(=O)[C@H](CCC(=O)O)NC(=O)[C@H](CSSC[C@H](NC(=O)[C@@H](N)Cc4ccc(O)cc4)C(=O)N[C@@H](CCC(N)=O)C(=O)N[C@@H](CCCCN)C(=O)N[C@@H](Cc4c[nH]c5ccccc45)C(=O)N[C@@H](CCSC)C(=O)N[C@@H](Cc4c[nH]c5ccccc45)C(=O)N[C@@H]([C@@H](C)O)C(=O)N3)NC2=O)C(=O)N[C@@H](CCCCN)C(=O)N[C@@H](CC(C)C)C(=O)N[C@@H](Cc2c[nH]c3ccccc23)C(=O)N1)C(N)=O` [compound 108], the IC50 in test [2] (Table 6) amounted to 1.8 µM; in test [3] (Table 6), 0.14 µM; in test [4] (Table 6) it was 0.06 µM.
For the compound `CC[C@H](C)[C@H](NC(=O)[C@@H](NC(=O)[C@H](CCCCN)NC(=O)[C@H](CCCNC(=N)N)NC(=O)[C@@H]1CSSC[C@@H]2NC(=O)[C@H](C)NC(=O)[C@H](CCCNC(=N)N)NC(=O)[C@H](CCCCN)NC(=O)[C@H](CO)NC(=O)[C@H](CC(=O)O)NC(=O)[C@@H]3CSSC[C@H](NC(=O)[C@H](CCC(=O)O)NC(=O)[C@H](CC(C)C)NC(=O)CNC(=O)[C@H](CCC(=O)O)NC(=O)[C@H](CSSC[C@H](NC(=O)[C@@H](N)Cc4ccc(O)cc4)C(=O)N[C@@H](CCC(N)=O)C(=O)N[C@@H](CCCCN)C(=O)N[C@@H](Cc4c[nH]c5ccccc45)C(=O)N[C@@H](CCSC)C(=O)N[C@@H](Cc4c[nH]c5ccccc45)C(=O)N[C@@H](Cc4cn(CCCOCCOCCOCCOCCOCCOCCOCCOCCOCCOCCN)nn4)C(=O)N3)NC2=O)C(=O)N[C@@H](CCCCN)C(=O)N[C@@H](CC(C)C)C(=O)N[C@@H](Cc2c[nH]c3ccccc23)C(=O)N1)[C@@H](C)CC)C(N)=O` [compound 171], the IC50 in test [2] (Table 9) is 18.7 µM; in test [3] (Table 9) it was greater than 5 µM; in test [4] (Table 9), greater than 5 µM. Also, the Nav1.4/Nav1.7 in test [3] (Table 9) was found to be 1.
Turning to `CC[C@H](C)[C@H](NC(=O)[C@H](CCCCN)NC(=O)[C@H](CCCNC(=N)N)NC(=O)[C@@H]1CSSC[C@@H]2NC(=O)[C@H](C)NC(=O)[C@H](CCCNC(=N)N)NC(=O)[C@H](CCCCN)NC(=O)[C@H](CO)NC(=O)[C@H](CC(=O)O)NC(=O)[C@@H]3CSSC[C@H](NC(=O)[C@H](CCC(=O)O)NC(=O)[C@H](CC(C)C)NC(=O)CNC(=O)[C@H](CCC(=O)O)NC(=O)[C@H](CSSC[C@H](NC(=O)[C@@H](N)Cc4ccc(O)cc4)C(=O)N[C@@H](CCC(N)=O)C(=O)N[C@@H](CCCCN)C(=O)N[C@@H](Cc4c[nH]c5ccccc45)C(=O)N[C@@H](CCSC)C(=O)N[C@@H](Cc4c[nH]c5ccccc45)C(=O)N[C@@H]([C@@H](C)O)C(=O)N3)NC2=O)C(=O)N[C@@H](CCCCN)C(=O)N[C@@H](CC(C)C)C(=O)N[C@@H](Cc2c[nH]c3ccccc23)C(=O)N1)C(=O)N[C@@H](Cc1cn(CCCOCCOCCOCCOCCOCCOCCOCCOCCOCCOCCN)nn1)C(N)=O` [compound 188], the IC50 in test [2] (Table 9) was 20.1 µM; in test [3] (Table 9) it was greater than 5 µM; in test [4] (Table 9) it was greater than 5 µM. For the same compound, in test [3] (Table 9), the Nav1.4/Nav1.7 came to 1.
